From patent US9708314B2, “Heterocyclic amide compound” (NISSAN CHEMICAL INDUSTRIES, LTD., priority 2013, dated 2017)

How the values were obtained:
Format in all cases: in vivo
[1] = test system: Veronica persica; assay: Test Example 4: herbicidal effect by application to foliage (diluvial soil, plastic box); conditions: for R: herbicidal effect on Veronica persica: application herbicide amount 320 g/ha; for R (Veronica persica) herbicidal effect grade: foliage application
Outline: (§1)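 Read-out is a 0–5 visual grade of herbicidal ratio (5: ≥90%, almost withered; 0: ≤5%) taken three weeks after treatment. Compound was applied as a diluted emulsion to stem and leaf parts of 14-day greenhouse-grown plants (25° C. to 30° C.) at rates expressed as g/ha.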

[2] = test system: Alopecurus myosuroides; assay: as above; conditions: for J: herbicidal effect on Alopecurus myosuroides: application herbicide amount 320 g/ha; for J (Alopecurus myosuroides) herbicidal effect grade: foliage application
Outline: as §1

[3] = test system: Chenopodium album; assay: as above; conditions: for O: herbicidal effect on Chenopodium album: application herbicide amount 320 g/ha; for O (Chenopodium album) herbicidal effect grade: foliage application
Outline: as §1

[4] = test system: Apera spica-venti.; assay: as above; conditions: for L: herbicidal effect on Apera spica-venti.: application herbicide amount 320 g/ha; for L (Apera spica-venti.) herbicidal effect grade: foliage application
Outline: as §1

[5] = test system: Avena fatua; assay: as above; conditions: for I: herbicidal effect on Avena fatua: application herbicide amount 320 g/ha; for I (Avena fatua) herbicidal effect grade: foliage application
Outline: as §1

[6] = test system: Abutilon theophrasti; assay: as above; conditions: for M: herbicidal effect on Abutilon theophrasti: application herbicide amount 320 g/ha; for M (Abutilon theophrasti) herbicidal effect grade: foliage application
Outline: as §1

[7] = test system: Setaria viridis; assay: as above; conditions: for G: herbicidal effect on Setaria viridis: application herbicide amount 320 g/ha; for G (Setaria viridis) herbicidal effect grade: foliage application
Outline: as §1

[8] = test system: Lolium multiflorum Lam.; assay: as above; conditions: for K: herbicidal effect on Lolium multiflorum Lam.: application herbicide amount 320 g/ha; for K (Lolium multiflorum Lam.) herbicidal effect grade: foliage application
Outline: as §1

[9] = test system: Echinochloa crus-galli var. crus-galli; assay: as above; conditions: for H: herbicidal effect on Echinochloa crus-galli var. crus-galli: application herbicide amount 320 g/ha; for H (Echinochloa crus-galli var. crus-galli) herbicidal effect grade: foliage application
Outline: as §1

[10] = test system: Amaranthus retroflexus; assay: as above; conditions: for N: herbicidal effect on Amaranthus retroflexus: application herbicide amount 320 g/ha; for N (Amaranthus retroflexus) herbicidal effect grade: foliage application
Outline: as §1

[11] = test system: Digitaria ciliaris; assay: as above; conditions: for F: herbicidal effect on Digitaria ciliaris: application herbicide amount 320 g/ha; for F (Digitaria ciliaris) herbicidal effect grade: foliage application
Outline: as §1

[12] = test system: Monochoria vaginalis; assay: Test Example 2: herbicidal activity, application during weed generation in submerged conditions; conditions: Eighteenth Table; application herbicide amount 320 g/ha
Outline: (§2)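 Paddy-type pot test: flooded soil, 4 cm depth, greenhouse 25–30 °C. Emulsion formulation diluted in water, applied to water surface at 1–2 leaf stage; rate expressed as g/ha. Read-out at 3 wk, 0–5 score.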

[13] = test system: Scirpus juncoides; assay: as above; conditions: Eighteenth Table; application herbicide amount 320 g/ha
Outline: as §2

[14] = test system: Echinochloa oryzacola Vasing.; assay: as above; conditions: Eighteenth Table; application herbicide amount 320 g/ha
Outline: as §2

[15] = test system: Stellaria media; assay: Test Example 4: herbicidal effect by application to foliage (diluvial soil, plastic box)
Outline: as §1

[16] = application to foliage, 320 g/ha

| Compound | R: herbicidal effect on Veronica persica ([1]; application to foliage) | J: herbicidal effect on Alopecurus myosuroides ([2]; application to foliage) | O: herbicidal effect on Chenopodium album ([3]; application to foliage) | L: herbicidal effect on Apera spica-venti. ([4]; application to foliage) | I: herbicidal effect on Avena fatua ([5]; application to foliage) | M: herbicidal effect on Abutilon theophrasti ([6]; application to foliage) | G: herbicidal effect on Setaria viridis ([7]; application to foliage) | K: herbicidal effect on Lolium multiflorum Lam. ([8]; application to foliage) | H: herbicidal effect on Echinochloa crus-galli var. crus-galli ([9]; application to foliage) | N: herbicidal effect on Amaranthus retroflexus ([10]; application to foliage) | F: herbicidal effect on Digitaria ciliaris ([11]; application to foliage) | C (Monochoria vaginalis) herbicidal ratio grade [12] | B (Scirpus juncoides) herbicidal ratio grade [13] | A (Echinochloa oryzicola Vasing.) herbicidal ratio grade [14] | R (Veronica persica) herbicidal effect grade ([1]; 320 g/ha) | J (Alopecurus myosuroides) herbicidal effect grade ([2]; 320 g/ha) | O (Chenopodium album) herbicidal effect grade ([3]; 320 g/ha) | L (Apera spica-venti.) herbicidal effect grade ([4]; 320 g/ha) | I (Avena fatua) herbicidal effect grade ([5]; 320 g/ha) | M (Abutilon theophrasti) herbicidal effect grade ([6]; 320 g/ha) | further results |
| --- | --- | --- | --- | --- | --- | --- | --- | --- | --- | --- | --- | --- | --- | --- | --- | --- | --- | --- | --- | --- | --- |
| O=C(Nc1nnco1)c1ccc(C(F)(F)F)n2c(SCc3ccc(Cl)nc3)nnc12 [1-157] | 2 (Herbicidal ratio of 20% or more and less than 40%) | 1 (Herbicidal ratio of 5% or more and less than 20%) | 5 (Herbicidal ratio of 90% or more (almost completely withered)) | 1 (Herbicidal ratio of 5% or more and less than 20%) | 1 (Herbicidal ratio of 5% or more and less than 20%) | 3 (Herbicidal ratio of 40% or more and less than 70%) | 1 (Herbicidal ratio of 5% or more and less than 20%) | 1 (Herbicidal ratio of 5% or more and less than 20%) | 3 (Herbicidal ratio of 40% or more and less than 70%) | 3 (Herbicidal ratio of 40% or more and less than 70%) | 3 (Herbicidal ratio of 40% or more and less than 70%) | 0 (Herbicidal ratio of 5% or less (almost no effect)) | 1 (Herbicidal ratio of 5% or more and less than 20%) | 0 (Herbicidal ratio of 5% or less (almost no effect)) | – | – | – | – | – | – | – |
| COC(=O)Cn1nnnc1NC(=O)c1ccc(C(F)(F)F)n2c(C(C)C)nnc12 [2-046] | – | – | – | – | – | – | – | – | – | – | – | – | – | – | 1 (Herbicidal ratio of 5% or more and less than 20%) | 0 (Herbicidal ratio of 5% or less (almost no effect)) | 4 (Herbicidal ratio of 70% or more and less than 90%) | 0 (Herbicidal ratio of 5% or less (almost no effect)) | 0 (Herbicidal ratio of 5% or less (almost no effect)) | 4 (Herbicidal ratio of 70% or more and less than 90%) | G (Setaria viridis) herbicidal effect grade ([7]; 320 g/ha): 1 (Herbicidal ratio of 5% or more and less than 20%); K (Lolium multiflorum Lam.) herbicidal effect grade ([8]; 320 g/ha): 0 (Herbicidal ratio of 5% or less (almost no effect)); H (Echinochloa crus-galli var. crus-galli) herbicidal effect grade ([9]; 320 g/ha): 3 (Herbicidal ratio of 40% or more and less than 70%); N (Amaranthus retroflexus) herbicidal effect grade ([10]; 320 g/ha): 4 (Herbicidal ratio of 70% or more and less than 90%); F (Digitaria ciliaris) herbicidal effect grade ([11]; 320 g/ha): 0 (Herbicidal ratio of 5% or less (almost no effect)); P (Stellaria media) herbicidal effect grade ([15]; foliage application, 320 g/ha): 2 (Herbicidal ratio of 20% or more and less than 40%) |
| O=C(Nc1nnco1)c1ccc(C(F)(F)F)n2c(SC3CCCC3)nnc12 [1-155] | 2 (Herbicidal ratio of 20% or more and less than 40%) | 0 (Herbicidal ratio of 5% or less (almost no effect)) | 5 (Herbicidal ratio of 90% or more (almost completely withered)) | 0 (Herbicidal ratio of 5% or less (almost no effect)) | 0 (Herbicidal ratio of 5% or less (almost no effect)) | 3 (Herbicidal ratio of 40% or more and less than 70%) | 1 (Herbicidal ratio of 5% or more and less than 20%) | 0 (Herbicidal ratio of 5% or less (almost no effect)) | 3 (Herbicidal ratio of 40% or more and less than 70%) | 3 (Herbicidal ratio of 40% or more and less than 70%) | 3 (Herbicidal ratio of 40% or more and less than 70%) | 0 (Herbicidal ratio of 5% or less (almost no effect)) | 2 (Herbicidal ratio of 20% or more and less than 40%) | 1 (Herbicidal ratio of 5% or more and less than 20%) | – | – | – | – | – | – | – |
| COc1ccc(N(C)c2nnc3c(C(=O)Nc4nnco4)ccc(C(F)(F)F)n23)cc1 [1-171] | 3 (Herbicidal ratio of 40% or more and less than 70%) | 0 (Herbicidal ratio of 5% or less (almost no effect)) | 5 (Herbicidal ratio of 90% or more (almost completely withered)) | 1 (Herbicidal ratio of 5% or more and less than 20%) | 0 (Herbicidal ratio of 5% or less (almost no effect)) | 4 (Herbicidal ratio of 70% or more and less than 90%) | 3 (Herbicidal ratio of 40% or more and less than 70%) | 0 (Herbicidal ratio of 5% or less (almost no effect)) | 5 (Herbicidal ratio of 90% or more (almost completely withered)) | 4 (Herbicidal ratio of 70% or more and less than 90%) | 3 (Herbicidal ratio of 40% or more and less than 70%) | – | – | 4 (Herbicidal ratio of 70% or more and less than 90%) | – | – | – | – | – | – | P: herbicidal effect on Stellaria media ([15]; application to foliage, application herbicide amount 320 g/ha): 5 (Herbicidal ratio of 90% or more (almost completely withered)) |
| CC(C)c1nnc2c(C(=O)Nc3nnnn3C)ccc(C(F)(F)C(F)(F)F)n12 [2-049] | – | – | – | – | – | – | – | – | – | – | – | 4 (Herbicidal ratio of 70% or more and less than 90%) | 5 (Herbicidal ratio of 90% or more (almost completely withered)) | 5 (Herbicidal ratio of 90% or more (almost completely withered)) | 4 (Herbicidal ratio of 70% or more and less than 90%) | 1 (Herbicidal ratio of 5% or more and less than 20%) | 5 (Herbicidal ratio of 90% or more (almost completely withered)) | 4 (Herbicidal ratio of 70% or more and less than 90%) | 3 (Herbicidal ratio of 40% or more and less than 70%) | 4 (Herbicidal ratio of 70% or more and less than 90%) | G (Setaria viridis) herbicidal effect grade ([7]; 320 g/ha): 5 (Herbicidal ratio of 90% or more (almost completely withered)); K (Lolium multiflorum Lam.) herbicidal effect grade ([8]; 320 g/ha): 3 (Herbicidal ratio of 40% or more and less than 70%); H (Echinochloa crus-galli var. crus-galli) herbicidal effect grade ([9]; 320 g/ha): 5 (Herbicidal ratio of 90% or more (almost completely withered)); N (Amaranthus retroflexus) herbicidal effect grade ([10]; 320 g/ha): 3 (Herbicidal ratio of 40% or more and less than 70%); F (Digitaria ciliaris) herbicidal effect grade ([11]; 320 g/ha): 5 (Herbicidal ratio of 90% or more (almost completely withered)) |
| Cc1nnc(NC(=O)c2ccc(C(F)(F)F)n3nc(C(C)C)nc23)o1 [7-001] | – | – | – | – | – | – | – | – | – | – | – | – | – | – | – | – | – | – | – | – | herbicidal effect, R (Veronica persica) [1, 16]: 0 (Herbicidal ratio of 5% or less (almost no effect)); herbicidal effect, J (Alopecurus myosuroides) [2, 16]: 0 (Herbicidal ratio of 5% or less (almost no effect)); herbicidal effect, O (Chenopodium album) [3, 16]: 2 (Herbicidal ratio of 20% or more and less than 40%); herbicidal effect, L (Apera spica-venti.) [4, 16]: 0 (Herbicidal ratio of 5% or less (almost no effect)); herbicidal effect, I (Avena fatua) [5, 16]: 0 (Herbicidal ratio of 5% or less (almost no effect)); herbicidal effect, M (Abutilon theophrasti) [6, 16]: 1 (Herbicidal ratio of 5% or more and less than 20%); herbicidal effect, G (Setaria viridis) [7, 16]: 0 (Herbicidal ratio of 5% or less (almost no effect)); herbicidal effect, K (Lolium multiflorum Lam.) [8, 16]: 0 (Herbicidal ratio of 5% or less (almost no effect)); herbicidal effect, H (Echinochloa crus-galli var. crus-galli) [9, 16]: 1 (Herbicidal ratio of 5% or more and less than 20%); herbicidal effect, N (Amaranthus retroflexus) [10, 16]: 0 (Herbicidal ratio of 5% or less (almost no effect)); herbicidal effect, F (Digitaria ciliaris) [11, 16]: 0 (Herbicidal ratio of 5% or less (almost no effect)); herbicidal effect, P (Stellaria media) [15, 16]: 1 (Herbicidal ratio of 5% or more and less than 20%) |
